# Where two headings read alike, the source gives them in different places.
# Columns and labels:
# [1] = tested on: Mycobacterium tuberculosis H37Ra ITM-M006710 (ATCC 9431); test: Antimycobacterial microdilution (resazurin) vs Mtb H37Ra; assay type: cell-based
# [2] = tested on: Mycobacterium tuberculosis H37Rv CNCTC My 331/88 (ATCC 27294); test: Microplate Alamar Blue assay vs Mtb H37Rv; assay type: cell-based; conditions: Mycobacterium tuberculosis
# [3] = tested on: Mycobacterium kansasii DSM 44,162 (ATCC 12478); test: Antimycobacterial microdilution (resazurin) vs M. kansasii; assay type: cell-based; conditions: read-out: MIC M. kansasii
# [4] = tested on: Mycobacterium avium DSM 44,156 (ATCC 25291); test: Antimycobacterial microdilution (resazurin) vs M. avium; assay type: cell-based; conditions: Mycobacterium avium, Middlebrook 7H9, resazurin; read-out: MIC M. avium
# [5] = tested on: Mycolicibacterium aurum DSM 43,999 (ATCC 23366); test: Antimycobacterial microdilution (resazurin) vs M. aurum; assay type: cell-based; conditions: read-out: MIC M. aurum
# [6] = tested on: Mycolicibacterium smegmatis DSM 43,465 (ATCC 607); test: Antimycobacterial microdilution (resazurin) vs M. smegmatis; assay type: cell-based; conditions: Middlebrook 7H9, resazurin, read-out: MIC M. smeg.
# [7] = tested on: Staphylococcus aureus subsp. aureus CCM 4223 (ATCC 29213); test: Antibacterial microdilution broth (EUCAST); assay type: cell-based; conditions: read-out: MIC Staphylococcus aureus subsp. aureus
# [8] = tested on: methicillin-resistant Staphylococcus aureus subsp. aureus (MRSA) CCM 4750 (ATCC 43300); test: microbe, parasite or virus in culture; assay type: cell-based; conditions: read-out: MIC Methicillin-resistant Staphylococcus aureus subsp. aureus
# [9] = tested on: Staphylococcus epidermidis CCM 4418 (ATCC 12228); test: Antibacterial microdilution broth (EUCAST); assay type: cell-based; conditions: read-out: MIC Staphylococcus epidermidis
# [10] = tested on: Enterococcus faecalis CCM 4224 (ATCC 29212); test: Antibacterial microdilution broth (EUCAST); assay type: cell-based; conditions: read-out: MIC Enterococcus faecalis
# [11] = tested on: Escherichia coli CCM 3954 (ATCC 25922); test: Antibacterial microdilution broth (EUCAST); assay type: cell-based; conditions: Escherichia coli, read-out: MIC Escherichia coli
# [12] = tested on: Klebsiella pneumoniae CCM 4415 (ATCC 10031); test: Antibacterial microdilution broth (EUCAST); assay type: cell-based; conditions: Klebsiella pneumoniae, read-out: MIC Klebsiella pneumoniae
# [13] = tested on: Acinetobacter baumannii DSM 30007 (ATCC 19606); test: Antibacterial microdilution broth (EUCAST); assay type: cell-based; conditions: read-out: MIC Acinetobacter baumannii
# [14] = tested on: Pseudomonas aeruginosa CCM 3955 (ATCC 27853); test: Antibacterial microdilution broth (EUCAST); assay type: cell-based; conditions: read-out: MIC Pseudomonas aeruginosa
# [15] = tested on: Candida albicans CCM 8320 (ATCC 24433); test: Antifungal microdilution broth (EUCAST); assay type: cell-based; conditions: Candida albicans, read-out: MIC Candida albicans
# [16] = tested on: Candida krusei CCM 8271 (ATCC 6258); test: Antifungal microdilution broth (EUCAST); assay type: cell-based; conditions: Pichia kudriavzevii, read-out: MIC Candida krusei
# [17] = tested on: Candida parapsilosis CCM 8260 (ATCC 22019); test: Antifungal microdilution broth (EUCAST); assay type: cell-based; conditions: Lodderomyces parapsilosis, read-out: MIC Candida parapsilosis
# [18] = tested on: Candida tropicalis CCM 8264 (ATCC 750); test: Antifungal microdilution broth (EUCAST); assay type: cell-based; conditions: read-out: MIC Candida tropicalis
# [19] = tested on: Aspergillus fumigatus ATCC 204305; test: Antifungal microdilution broth (EUCAST); assay type: cell-based; conditions: Aspergillus fumigatus, read-out: MIC Aspergillus fumigatus
# [20] = tested on: Aspergillus flavus CCM 8363; test: Antifungal microdilution broth (EUCAST); assay type: cell-based; conditions: Aspergillus flavus, read-out: MIC Aspergillus flavus
# [21] = tested on: Lichtheimia corymbifera CCM 8077; test: Antifungal microdilution broth (EUCAST); assay type: cell-based; conditions: Lichtheimia corymbifera, read-out: MIC Lichtheimia corymbifera
# [22] = tested on: Trichophyton interdigitale CCM 8377 (ATCC 9533); test: Antifungal microdilution broth (EUCAST); assay type: cell-based; conditions: Trichophyton interdigitale, read-out: MIC Trichophyton interdigitale
# HepG2 cell line = test: Cytotoxicity screening, CellTiter 96 assay; conditions: for IC50: Homo sapiens, HepG2, 24 h, read-out: IC50 HepG2
structure (smiles),measurement,setting,value
"Nc1ncc(Cl)nc1C(=O)Nc1ccc2c(c1)B(O)OC2 [Compound 7, 3-amino-6-chloro-N-(1-hydroxy-1,3-dihydrobenzo[c][1,2]oxaborol-6-yl)pyrazine-2-carboxamide]",MIC,"[1]; read-out: MIC Mtb H37Ra, Middlebrook 7H9, resazurin, recalculated from µg/mL",> 1850 µM
same,MIC,"[2]; pH 6.6, read-out: MIC Mtb H37Rv, MABA, Middlebrook 7H9 pH 6.6, recalculated from µg/mL",> 328 µM
same,MIC,[3],> 1850 µM
same,MIC,[4],411 µM
same,MIC,[5],> 1850 µM
same,MIC,[6],411 µM
same,MIC,[7]; 24 h,> 125 µM
same,MIC,[7]; 48 h,> 125 µM
same,MIC,[8]; 24 h,> 125 µM
same,MIC,[8]; 48 h,> 125 µM
same,MIC,[9]; 24 h,> 125 µM
same,MIC,[9]; 48 h,> 125 µM
same,MIC,[10]; 24 h,> 125 µM
same,MIC,[10]; 48 h,> 125 µM
same,MIC,[11]; 24 h,> 125 µM
same,MIC,[11]; 48 h,> 125 µM
same,MIC,[12]; 24 h,> 125 µM
same,MIC,[12]; 48 h,> 125 µM
same,MIC,[13]; 24 h,> 125 µM
same,MIC,[13]; 48 h,> 125 µM
same,MIC,[14]; 24 h,> 125 µM
same,MIC,[14]; 48 h,> 125 µM
same,MIC,[15]; 24 h,> 125 µM
same,MIC,[15]; 48 h,> 125 µM
same,MIC,[16]; 24 h,> 125 µM
same,MIC,[16]; 48 h,> 125 µM
same,MIC,[17]; 24 h,> 125 µM
same,MIC,[17]; 48 h,> 125 µM
same,MIC,[18]; 24 h,> 125 µM
same,MIC,[18]; 48 h,> 125 µM
same,MIC,"[19]; ATCC204305, 24 h",> 125 µM
same,MIC,"[19]; ATCC204305, 48 h",> 125 µM
same,MIC,"[20]; CCM8363, 24 h",> 125 µM
same,MIC,"[20]; CCM8363, 48 h",> 125 µM
same,MIC,"[21]; CCM8077, 24 h",> 125 µM
same,MIC,"[21]; CCM8077, 48 h",> 125 µM
same,MIC,[22]; 72 h,> 125 µM
same,MIC,[22]; 120 h,> 125 µM
same,melting point,,242.9 to 244.4 °C
same,IC50,HepG2 cell line,> 100 µM
same,toxicity to HepG2 up to highest tested concentration,"HepG2 cell line; tested up to 500 µM (2, 3), 250 µM (12, 17), 100 µM (6, 7, 11) because of solubility",non-toxic
"O=C(Nc1ccc2c(c1)B(O)OC2)c1ncc[nH]c1=O [Compound 8, N-(1-hydroxy-1,3-dihydrobenzo[c][1,2]oxaborol-6-yl)-3-oxo-3,4-dihydropyrazine-2-carboxamide]",MIC,"[1]; Middlebrook 7H9, resazurin, recalculated from µg/mL, read-out: MIC Mtb H37Ra",231 µM
same,MIC,"[2]; pH 6.6, MABA, Middlebrook 7H9 pH 6.6, recalculated from µg/mL, read-out: MIC Mtb H37Rv",92.2 µM
same,MIC,[3],231 µM
same,MIC,[4],57.6 µM
same,MIC,"[5]; Middlebrook 7H9, resazurin",28.8 µM
same,MIC,[6],28.8 µM
same,MIC,[7]; 24 h,125 µM
same,MIC,[7]; 48 h,125 µM
same,MIC,[8]; 24 h,125 µM
same,MIC,[8]; 48 h,125 µM
same,MIC,[9]; 24h incubation,500 µM
same,MIC,[9]; 48h incubation,500 µM
same,MIC,[10]; 24h incubation,> 500 µM
same,MIC,[10]; 48h incubation,> 500 µM
same,MIC,[11]; 24h incubation,> 500 µM
same,MIC,[11]; 48h incubation,> 500 µM
same,MIC,[12]; 24h incubation,> 500 µM
same,MIC,[12]; 48h incubation,> 500 µM
same,MIC,[13]; 24h incubation,> 500 µM
same,MIC,[13]; 48h incubation,> 500 µM
same,MIC,[14]; 24h incubation,> 500 µM
same,MIC,[14]; 48h incubation,> 500 µM
same,MIC,[15]; 24h incubation,> 500 µM
same,MIC,[15]; 48h incubation,> 500 µM
same,MIC,[16]; 24h incubation,> 500 µM
same,MIC,[16]; 48h incubation,> 500 µM
same,MIC,[17]; 24h incubation,> 500 µM
same,MIC,[17]; 48h incubation,> 500 µM
same,MIC,[18]; 24h incubation,> 500 µM
same,MIC,[18]; 48h incubation,> 500 µM
same,MIC,"[19]; ATCC204305, 24h incubation",> 500 µM
same,MIC,"[19]; ATCC204305, 48h incubation",> 500 µM
same,MIC,"[20]; CCM8363, 24h incubation",> 500 µM
same,MIC,"[20]; CCM8363, 48h incubation",> 500 µM
same,MIC,"[21]; CCM8077, 24h incubation",> 500 µM
same,MIC,"[21]; CCM8077, 48h incubation",> 500 µM
same,MIC,[22]; 72h incubation,> 500 µM
same,MIC,[22]; 120h incubation,> 500 µM
same,melting point,,326.4 to 328.3 °C (dec.)
same,IC50,HepG2 cell line,> 1000 µM

# Source: paper PMC9917560, “Design, Synthesis and Antimicrobial Evaluation of New N-(1-Hydroxy-1,3-dihydrobenzo[c][1,2]oxaborol-6-yl)(hetero)aryl-2-carboxamides as Potential Inhibitors of Mycobacterial Leucyl-tRNA Synthetase” (International Journal of Molecular Sciences, 2023)
